US6509050B1, “Use of antimicrobial polyphosphates in food processing” (Astaris LLC, priority 1999, dated 2003)
Where “and” joins values, the source holds several entries; their conditions need not be identical. Equal values may be shown once.

What was measured:
Assay type in all cases: cell-based
lactic acid organisms = assay: Growth of lactic acid organisms in sectioned and formed ham (Example 7); conditions: after 8 weeks storage at 1.11° C., no phosphate: 7.42
Experimental: (§1) Five 16 Kg batches of restructured ham were prepared. Fresh whole pork hams were skinned, boned, sectioned into muscles, and each muscle trimmed to remove all trimmable connective tissue and subcutaneous and intramuscular fat. […] The pumped muscles were macerated manually to facilitate brine absorption; tumbled; and stuffed into fibrous casings in 908.0 g chubs. The hams were weighed and then cooked to 71.1° C. internal temperature. Cooked hams were chilled for 24 hr at 0° C., vacuum packaged, and stored at 1.11° C. for 8 weeks. Sample homogenate was prepared by blending 11 g of ham with 99 mL of sterile 0.1% peptone diluent and agitating for 1 min in a stomacher. Serial dilutions were prepared by transferring 1.0 mL aliquots of the sample diluent to 9 mL of sterile 0.1% peptone. […] Duplicate samples were analyzed for each treatment.

aerobic plate count = assay: Aerobic plate count in sectioned and formed ham (Example 7); conditions: after 8 weeks storage at 1.11° C., no phosphate: 6.03
Experimental: as §1

psychrotrophic organisms [1] = assay: Growth of psychrotrophic microorganisms in sectioned and formed ham (Example 7); conditions: after 8 weeks storage at 1.11° C., no phosphate: 7.79
Experimental: as §1

psychrotrophic organisms [2] = assay: Growth of psychrotrophic microorganisms in sectioned and formed ham (Example 6); conditions: 0.4% by weight phosphate in cooked ham; after 8 weeks storage at 0° C.; no phosphate: 3.97; listed as Sodium tripolyphosphate (pH about 9.8)
Experimental: Seven batches 40-pound (about 18.2 Kg) of cooked sectioned and formed boneless ham were manufactured to meet the following specifications: moisture, 71.2-73.7%; protein, 18.1-19.8%; fat, 3.66-6.31%; salt, 2.0%; and phosphate, 0.4%. The hams were manufactured to conform to the standards of identity for a cooked ham with a minimum of 18.5% protein fat free (PFF). The phosphate salts (0.4% by weight) indicated in Table 6 were added to six of the hams. […] After injection, the hams were vacuum-tumbled for 45 min, stuffed into 6.5-in (about 16.5 cm) diameter fibrous casings, and then cooked to an internal temperature of 71.1° C. Cooked hams were chilled for 8 hr at 0° C., vacuum packaged, and stored at 0° C. for 8 weeks. Sample homogenate was prepared by blending 11 g of ham with 99 mL of sterile 0.1% peptone diluent and agitating for 1 min in a stomacher. Serial dilutions were prepared by transferring 1.0 mL aliquots of the sample diluent to 9 mL of sterile 0.1% peptone. The appropriate dilutions were plated on plate count agar. The plates were incubated at 7° C. for 10 days.

| SMILES | log (colony forming units)/g (lactic acid organisms; 0.4% phosphate in ham) | log (colony forming units)/g (lactic acid organisms; 1.0% phosphate in ham) | log (colony forming units)/g (aerobic plate count; 0.4% phosphate in ham) | log (colony forming units)/g (aerobic plate count; 1.0% phosphate in ham) | log (colony forming units)/g (psychrotrophic organisms [1]; 0.4% phosphate in ham) | log (colony forming units)/g (psychrotrophic organisms [1]; 1.0% phosphate in ham) | log (colony forming units)/g (psychrotrophic organisms [2]) |
| --- | --- | --- | --- | --- | --- | --- | --- |
| O=P(O)(O)OP(=O)(O)OP(=O)(O)O [Sodium tripolyphosphate] | 6.62 log (colony forming units)/g | 6.70 log (colony forming units)/g | 6.69 log (colony forming units)/g | 5.67 log (colony forming units)/g | 7.8 log (colony forming units)/g | 5.91 log (colony forming units)/g | 1.58 log (colony forming units)/g and 1.84 log (colony forming units)/g |
| O=P([O-])(O)OP(=O)([O-])O.[Na+].[Na+] [Sodium acid pyrophosphate] | – | 5.38 log (colony forming units)/g | – | 4.49 log (colony forming units)/g | – | 5.28 log (colony forming units)/g | – |
| O=P1([O-])OP(=O)([O-])OP(=O)([O-])OP(=O)([O-])OP(=O)([O-])OP(=O)([O-])O1.[Na+].[Na+].[Na+].[Na+].[Na+].[Na+] [Sodium hexametaphosphate] | – | 6.24 log (colony forming units)/g | – | 4.55 log (colony forming units)/g | – | 4.62 log (colony forming units)/g | – |
